# Reference: patent US7589177B2, “Nucleic acid molecules encoding cyclotide polypeptides and methods of use” (E.I. du Pont de Nemours & Company, priority 2004, dated 2009)
# How the values were obtained:
# [1] = test system: Sclerotinia; experiment: Sclerotinia hyphal growth inhibition dose-response assay; format: cell-based, Sclerotinia sclerotiorum; parameters: key: 0: no inhibition of fungal growth; 1: slight inhibition; 2: moderate inhibition; 3: extensive inhibition; 4: total inhibition; conditions: 48 hours
# Protocol: To test the activity of cyclotide 2 against Sclerotinia, a Sclerotinia test inoculum was started by inoculating ½ strength PDB liquid with a sterile loop of hyphae from a Sclerotinia culture propagated on a ⅛ strength potato dextrose agar (PDA) plate. This liquid inoculum was held at room temperature (22° C.), without shaking, in the dark for 4 days, to allow sufficient growth of hyphae. The resulting suspension was macerated using a sterile polytron tissue grinder. The sample was then diluted with ½ strength PDB to the point of invisibility to the naked eye (observation under microscopy at 40× indicated the presence of 12-15 hyphal fragments per 50 μL aliquot of inoculum). Then, 50 μL of the inoculum was added to each well of a 96 shallow well bioassay plate.
# The cyclotide sample, following fractionation and lyophilization, was resuspended in 100 μL ½ strength PDB, placed on ice and gently shaken. Then, 50 μL of resuspended sample was added to each corresponding well of the bioassay plate to give a final test volume of 100 μL and […] per well. In the inoculum control wells, 50 μL of inoculum and 50 μL of ½ strength PDB were used, while the media control wells contained 100 μL of ½ strength PDB. The wells were covered with Breathe-Easy membranes (Web Scientific Ltd., Cheshire, U.K.) and placed in the dark on the benchtop.
# For the dose-response assay, lyophilized cyclotide 2 was resuspended in 40 μL of ½ strength PDB solution. Then, 20 μL of the resuspended sample was pipetted into 4 different wells containing either 8 μL, 6 μL, 4 μL or 2 μL of suspension. The final volume in each well was adjusted to 100 μL with the Sclerotinia test inoculum. The plates were covered with Breathe-Easy membranes (Web Scientific Ltd., Cheshire, U.K.) and placed in the dark on the benchtop.
# [2] = test system: Neurospora crassa; experiment: Dose-response fungal growth inhibition assay; format: cell-based; conditions: 2500 spores/mL in 1/2 strength PDB, 28° C., scored after 24 and 48 hours
# Protocol: (§1) The anti-fungal activity of cyclotide 2 was tested against the crop pathogens Fusarium verticilloides and Colletotrichum graminaria, and the filamentous fungus Neurospora crassa. To conduct the assay, 100 μL of ½ strength potato dextrose broth (PDB) containing a spore suspension of 2500 spores/mL was added to each well in a 96 well microtiter plate containing dried HPLC fractions. The plates were mixed three times in approximately five minute intervals before incubation at 28° C., and were scored after 24 hours and 48 hours for inhibition of fungal growth. Inhibition of fungal growth was defined as little to no spore germination with no detectable hyphae growth.
# (§2) The dose-response fungal assays were performed by resuspending the lyophilized cyclotide protein sample in 200 μL of a solution which consisted of fungal spores suspended in ½ strength potato dextrose broth (PDB) at a concentration of 2500 spores/mL. The spores were either from Fusarium verticilloides, Colletotrichum graminaria or Neurospora crassa. This resuspended sample represented a starting stock solution. A 0.5× dilution series was then prepared by removing 100 μL of the starting stock solution and adding it to a well in a 96 well tray containing 100 μL of spore suspension (2500 spores/mL), mixing thoroughly and then transferring 100 μL of the newly diluted cyclotide/spore suspension to a fresh well containing 100 μL of spore suspension etc., until all 12 columns of the row of sample in the 96 well tray were prepared. The final volume of the assay was then 100 μL. The plates were mixed three times in approximately five minute intervals before they were incubated at 28° C. and then were scored after 24 and 48 hours for inhibition of fungal growth. Inhibition of fungal growth was defined as little to no spore germination with no detectable hyphae growth.
# [3] = test system: Fusarium verticilloides; experiment: Dose-response fungal growth inhibition assay; format: cell-based; conditions: 2500 spores/mL in 1/2 strength PDB, 28° C., scored after 24 and 48 hours
# Protocol: as §1, §2
# [4] = test system: Colletotrichum graminaria; experiment: Dose-response fungal growth inhibition assay; format: cell-based; conditions: 2500 spores/mL in 1/2 strength PDB, 28° C., scored after 24 and 48 hours
# Protocol: as §1, §2
# [5] = test system: Caenorhabditis elegans; experiment: Nematocidal activity of cyclotide 2 against C. elegans (dose-response, development score); format: in vivo; conditions: fractionated crude extract of Viola spp.
# [6] = test system: Panagrellus redivivus; experiment: Bioactivity of cyclotide 2 against the nematode Panagrellus redivivus (dose-response, % mortality); format: in vivo
# Protocol: Panagrellus was grown in basal medium and diluted in sterile water to create a stock solution concentration of 200 nematodes/50 μL (the basal media inoculum). Using a multi-channel pipette, 50 μL of the nematode stock solution was added to each well of plates containing the fractionated crude extract. Tests were performed on duplicate samples. Once the activity was established, the HPLC peaks corresponding to the active wells were purified and dose-response assays were done.
# Samples for a dose-response assay were resuspended in 40 μL and 4 wells of 8 μL, 6 μL, 4 μL and 2 μL were prepared in replicates of two. The volume was adjusted with the basal media inoculum to get a final volume of 50 μL and 200 nematodes per well. […] The percent mortality was calculated as ratio of dead nematodes against the total (living and dead) number present in the test wells.
# [7] = test system: Caenorhabditis elegans; experiment: Nematocidal activity of cyclotide 2 against C. elegans (dose-response, development score); format: in vivo; parameters: key to Replicate 1 Score (nematode development) / Replicate 2 Score (nematode development): 1: no development; 2: little development; 5: medium development; 10: full development; conditions: for Replicate 1 Score (nematode development) / Replicate 2 Score (nematode development): 50 L1-stage nematodes per well
# Protocol: Samples of cyclotide 2 to be used in a dose-response assay were resuspended in 180 μl distilled H2O to create a stock solution of 161.3 μM. The dose-response assay was carried out in 96 well microtiter plates with each dose prepared in replicates of two. Each assay well contained 50 L1-stage nematodes which had been grown in S-medium (100 mM NaCl, 10 mM K citrate, pH 6.0, 50 mM KHPO4, pH 6.0, 3 mM CaCl2, 3 mM MgCl2, […], […], 10 mM MnCl2, 10 mM ZnSO4, 1 mM CuSO4) and had been allowed to feed on overnight cultured E. coli strain OP50, 30 μg/mL tetracycline and 30 μg/mL chloramphenicol. The total assay volume was 100 μL. The assay was scored at days 3 and 4 (Table 3).
substance,measurement,setting,value
"cyclotide 2: bioactive cyclotide purified from Viola spp. extract; SEQ ID NO:6 GIPCGESCVWIPCISAAIGCSCKSKVCYRN (cyclo(GIPCGESCVWIPCISAAIGCSCKSKVCYRN); not fully specified (bridges); also: three disulfide bonds (cystine knot), pairings not given here; listed as Viola sp.)",Score (inhibition of hyphal growth),[1]; 1.67 μM,1
same,Score (inhibition of hyphal growth),[1]; 3.33 μM,2
same,Score (inhibition of hyphal growth),[1]; 5.0 μM,4
same,Score (inhibition of hyphal growth),[1]; 6.67 μM,3
same,Cyclotide concentration at which total inhibition of fungal growth is observed,[2],1.25 µM
same,Cyclotide concentration at which total inhibition of fungal growth is observed,[3],10 µM
same,Cyclotide concentration at which total inhibition of fungal growth is observed,[4],2.5 µM
same,Activity of HPLC peak against Caenorhabditis elegans,[5],specifically active
same,Scored at 18 hrs (% mortality),[6]; 10.07 μM,60%
same,Scored at 24 hrs (% mortality),[6]; 10.07 μM,74%
same,Scored at 18 hrs (% mortality),[6]; 20.13 μM,>60%
same,Scored at 24 hrs (% mortality),[6]; 20.13 μM,78%
same,Scored at 18 hrs (% mortality),[6]; 30.20 μM,70%
same,Scored at 24 hrs (% mortality),[6]; 30.20 μM,80%
same,Scored at 18 hrs (% mortality),[6]; 40.27 μM,85%
same,Scored at 24 hrs (% mortality),[6]; 40.27 μM,90%
same,Scored at 18 hrs (% mortality),[6]; 50.34 μM,85%
same,Scored at 24 hrs (% mortality),[6]; 50.34 μM,95%
same,Scored at 18 hrs (% mortality),[6]; 60.40 μM,90%
same,Scored at 24 hrs (% mortality),[6]; 60.40 μM,~100%
same,Activity of HPLC peak against Panagrellus redivivus,[6]; fractionated crude extract of Viola spp.,specifically active
same,LD90 concentration (concentration at which 90% of the nematodes are killed),[6]; within 24 hrs observation time,40.27 µM
same,Replicate 1 Score (nematode development),[7]; 0.81 μM,10
same,Replicate 2 Score (nematode development),[7]; 0.81 μM,10
same,Replicate 1 Score (nematode development),[7]; 1.62 μM,10
same,Replicate 2 Score (nematode development),[7]; 1.62 μM,10
same,Replicate 1 Score (nematode development),[7]; 3.24 μM,5
same,Replicate 2 Score (nematode development),[7]; 3.24 μM,5
same,Replicate 1 Score (nematode development),[7]; 6.48 μM,2
same,Replicate 2 Score (nematode development),[7]; 6.48 μM,2
same,Replicate 1 Score (nematode development),[7]; 16.2 μM,1
same,Replicate 2 Score (nematode development),[7]; 16.2 μM,1
same,LD90,[7]; recorded after day three,6.48 µM
